Measured values reported in patent US9353152B2, “Induction of the mitochondrial permeability transition” (NewSouth Innovations Pty Limited, priority 2002, dated 2016).
Where two headings read alike, the source gives them in different places.

What was measured:
ANT Cys^160 = target: T1, ANT Cys^160 (Rattus norvegicus, UniProt Q09073); test: Labelling of ANT with eosin-5-maleimide (competition); format: binding; settings: 200 nmol GSAO per mg of protein, sub-mitochondrial particles
T1 construct: Rat liver sub-mitochondrial particles were prepared by sonication and differential centrifugation; from tissue; host or cells: rat liver sub-mitochondrial particles
T1 sequence (Q09073 1-298): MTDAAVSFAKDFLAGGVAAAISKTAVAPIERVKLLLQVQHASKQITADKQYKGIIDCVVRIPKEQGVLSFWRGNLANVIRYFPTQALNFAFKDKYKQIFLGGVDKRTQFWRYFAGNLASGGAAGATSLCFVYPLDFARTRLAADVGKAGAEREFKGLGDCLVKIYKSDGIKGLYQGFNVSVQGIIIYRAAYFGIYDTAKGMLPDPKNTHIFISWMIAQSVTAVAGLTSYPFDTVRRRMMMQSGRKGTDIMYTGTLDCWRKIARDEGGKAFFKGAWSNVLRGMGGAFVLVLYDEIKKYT
Experimental: Rat liver sub-mitochondrial particles were prepared by sonication and differential centrifugation according to Majima et al. (1998). The particles were suspended at 20 mg of protein per mL in 10 mM Tris, pH 7.2 buffer containing 250 mM sucrose and 0.2 mM EDTA and incubated without or with 200 nmol GSAO per mg of protein for 10 min at 25° C., followed by 20 nmol of eosin-5-maleimide per mg of protein for 1 min at 0° C. in the dark. The labelling was terminated by addition of 10 μmol of dithiothreitol per mg of protein. The proteins were resolved on 4-20% gradient iGels and the eosin-labelled ANT was visualised by UV transillumination using a Fluor-S™ Multilmager (Bio-Rad, Hercules, Calif.).

BAE cells [1] = test: Cell viability assay, attached cells (methylene blue), proliferating or growth-quiescent cells; format: cell-based, bovine
Experimental: BAE or HMEC-1 cells were seeded at a density of 10^4 cells per cell into 96 well plates and allowed to adhere overnight and then treated as indicated.

BAE cells [2] = test: Mitochondrial membrane potential (JC-1) and apoptosis (annexin V) by flow cytometry; format: cell-based, bovine; settings: 10% serum, 48 h
Experimental: (§1) For measurements of superoxide levels with dihydroethidine, mitochondrial membrane potential with JC-1, mitochondrial mass with nonyl acridine orange, and apoptosis with annexin V, proliferating or growth-quiescent BAE cells were treated for 24 or 48 h with GSAO in six-well culture plates, then detached with trypsin/EDTA, washed once, and resuspended at 2×10^6 cells per mL in serum-free medium. Cells were then incubated for 15 min at room temperature with dihydroethidine (5 μM, Molecular Probes) or 30 min at room temperature with JC-1 (0.5 μg·mL^−1, Molecular Probes), annexin V-FITC (50 μl·mL^−1) (Pharmingen, La Jolla, Calif., USA), or acridine orange 10-nonyl bromide (5 μM, Molecular Probes). Cells were then washed once, resuspended in 0.5 mL serum-free medium, transferred to ice, and fluorescence was quantitated immediately by flow cytometry.

BAE cells [3] = test: Mitochondrial mass (nonyl acridine orange uptake); format: cell-based, bovine; settings: GSAO treatment 24 h, proliferating and growth-quiescent cells
Experimental: as §1

Rat liver mitochondria = format: biochemical; settings: 100 μM GSAO, 0-60 min
BxPC-3 tumours = test: Immunohistochemistry of tumour sections (CD31, PCNA, TUNEL); format: in vivo, SCID mice; settings: day 31, GSAO- versus GSAA-treated tumours
Text: Tumours were fixed in Buffered Formalde-Fresh (Fisher Scientific, Fair Lawn, N.J.), embedded in paraffin and 5 μm thick sections were cut and placed on glass slides. Sections were stained with haematoxylin and eosin or for CD31, PCNA (Holmgren et al., 1995) or fragmented DNA (Gavrielli et al., 1992). […] The proliferative index was estimated by the percentage of cells scored under 400× magnification. A minimum of 1000 cells was counted in two separate sections. The apoptotic index was estimated by the percentage of cells scored under 400× magnification. A minimum of 1500 cells was counted in two separate sections.

BAE cells [4] = test: Cell proliferation and viability assay (MTT); format: cell-based, bovine; settings: 10% serum, 48 h; read-out: IC50 for proliferation arrest of BAE cells
Experimental: (§2) BAE or human pancreatic carcinoma BxPC-3 cells were seeded at a density of 10^3 cells per well into 96 well plates in DMEM containing 10% foetal bovine serum and allowed to adhere for 24 h. Cells were washed and incubated with DMEM containing 10% foetal bovine serum and GSAO or o-GSAO and cultured for a further 48 h. Some BAE cells were arrested for 24 h in medium containing 0.25% serum and cultured for a further 48 h in medium containing 0.25% or 10% serum, in the presence of GSAO or o-GSAO. Viable attached cells were determined using MTT.

[5] = tested on: human pancreatic carcinoma BxPC-3 cells; test: Cell proliferation and viability assay (MTT); format: cell-based; settings: 10% serum, 48 h; read-out: IC50 for proliferation arrest of BxPC-3 cells
Experimental: as §2

[6] = Side-effects in Balb-C nude mice bearing BxPC-3 tumours; format: in vivo; settings: 1 or 10 mg/kg/day s.c.
Experimental: Female 7 to 9 week old Balb C nude were used (UNSW Biological Resource Centre). Mice were held in groups of 3 to 5 at a 12 h day and night cycle and were given animal chow and water ad libidum. A suspension of 2.5×10^6 BxPC-3 cells in 0.2 mL of PBS was injected subcutaneously in the proximal midline. Tumours were allowed to establish and grow to a size of ˜40 mm^3 after which they were randomised into four groups. Tumour volume was calculated using the relationship, a·b^2·0.52, where a is the longest and b the shortest diameter. Animals were treated with either GSAO or o-GSAO at a dose 1 or 10 mg/kg/day in 0.1 mL of PBS. The compounds were administered subcutaneously at a site distant from the tumour. Tumour volume and animal weight was measured every 2 or 3 days.
Balb-C nude mice bearing ˜40 mm^3 BxPC-3 tumours were randomised into four groups (n=10 or 11 per group) and treated subcutaneously with either GSAO (part A) or o-GSAO (part B) at 1 or 10 mg/kg/day in 0.1 mL of PBS. Parts C and D are the mice weights for the respective groups, where the arrow indicates start of treatment. The data points are the mean±SE of the tumour volumes or mice weights. Treatment with 10 mg/kg o-GSAO (part B) was stopped at day 14 due to necrosis and inflammation at sites of injection in 7 out of 11 mice (3/11 with severe ulcers, 4/11 with medium ulcers).

BAE cells [7] = settings: read-out: IC50 (μM)*

N[C@@H](CCC(=O)N[C@@H](CSCC(=O)Nc1ccc([As]=O)cc1)C(=O)NCC(=O)O)C(=O)O (stereo partly drawn) [GSAO, 4-(N—(S-glutathionylacetyl)amino)-phenylarsenoxide]
competition for eosine-maleimide alkylation of ANT Cys^160 (ANT Cys^160): competed
effect on viability of growth-quiescent BAE cells (BAE cells [1]): little effect
mitochondrial depolarisation (JC-1) and apoptosis (annexin V binding) (BAE cells [2]): triggered mitochondrial depolarisation and induced apoptosis
mitochondrial mass (BAE cells [3]): unchanged
release of Cytochrome C into the medium (Rat liver mitochondria): triggered time-dependent release
proliferative index (PCNA) (BxPC-3 tumours): the same
blood vessel density (CD31) (BxPC-3 tumours; p<0.001): significant reduction
apoptotic index (TUNEL) (BxPC-3 tumours; p=0.05): significant increase
IC50 (BAE cells [4]): 8.3 ± 2.1 µM
IC50 [5]: > 300 µM
side-effects (behavioural, skin necrosis, weight loss) with GSAO administration [6]: not observed
IC50 (BAE cells [7]): 8.28 µM
